Measured values published in PubChem BioAssay AID1645863 (Buhrlage Lab, Dana-Farber Cancer Institute and Novartis …, 2021).
The source made the active and inactive calls. The rule behind the calls is not given here.

molecular target: Ubiquitin carboxyl-terminal hydrolase 10 (Homo sapiens) (UniProt Q14694); assay: primary hit verification, biochemical, ubiquitin-specific protease 10 deubiquitylase inhibitors, concentration-effect titration (AID 1645863); conditions: USP10 deubiquitinase enzymatic assay;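 note: potency values describe inhibition of USP10 cleavage of a fluorogenic ubiquitin substrate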
Sequence (Q14694 whole entry, looked up): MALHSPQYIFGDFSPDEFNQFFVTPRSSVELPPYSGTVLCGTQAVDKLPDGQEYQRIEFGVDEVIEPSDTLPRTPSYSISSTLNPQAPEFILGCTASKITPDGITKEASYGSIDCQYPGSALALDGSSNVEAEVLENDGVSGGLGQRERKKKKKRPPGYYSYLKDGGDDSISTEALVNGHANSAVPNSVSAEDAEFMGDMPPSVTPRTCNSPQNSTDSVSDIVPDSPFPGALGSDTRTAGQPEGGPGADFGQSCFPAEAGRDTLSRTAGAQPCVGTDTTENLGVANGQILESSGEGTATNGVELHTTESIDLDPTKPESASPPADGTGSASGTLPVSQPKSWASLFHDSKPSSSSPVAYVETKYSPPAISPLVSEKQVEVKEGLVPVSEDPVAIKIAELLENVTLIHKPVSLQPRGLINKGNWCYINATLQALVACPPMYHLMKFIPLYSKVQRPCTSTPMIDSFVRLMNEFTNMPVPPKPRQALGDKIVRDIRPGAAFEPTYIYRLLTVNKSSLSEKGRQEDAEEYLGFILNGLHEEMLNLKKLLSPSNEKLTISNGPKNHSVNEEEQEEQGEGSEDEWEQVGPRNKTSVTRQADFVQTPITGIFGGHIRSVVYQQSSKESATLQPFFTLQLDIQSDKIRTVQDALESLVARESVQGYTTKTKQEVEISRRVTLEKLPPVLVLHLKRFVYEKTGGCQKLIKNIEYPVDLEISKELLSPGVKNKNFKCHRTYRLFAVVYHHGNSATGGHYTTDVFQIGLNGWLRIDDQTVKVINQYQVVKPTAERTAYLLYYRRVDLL

| IC50 | Compound |
| --- | --- |
| > 40 µM (inactive) | CCc1cccc(CC)c1NC(=O)COC(=O)c1cc2cccc(OC)c2oc1=O |
| > 40 µM (inactive) | COc1ccc(C)cc1NC(=O)Nc1nnc(CC(=O)NCc2ccccc2)s1 |
| 5.79 µM | CC1=C(Cn2c3cccc(=O)c-3nc3ccccc32)CCC(C)(C)C1 |
| > 40 µM (inactive) | O=C(Cn1cccc(-c2nc(-c3ccccc3)no2)c1=O)Nc1ccccc1F |
| > 40 µM (inactive) | CCOc1ccccc1NC(=O)Cn1c(=O)n(CCC(=O)NCCc2ccc(OC)c(OC)c2)c(=O)c2ccccc21 |
| 29.9 µM | COc1cccc(CNC(=O)c2nnn(CC(=O)Nc3cc(C)ccc3C)c2N)c1 |
| 12.8 µM | O=C(NCC1(c2ccccc2)CCC1)c1nc2n(n1)-c1ccccc1S(=O)(=O)N2 |
| 19.8 µM | COc1cccc(-n2cnc3cc(C(=O)NCCc4ccccc4)ccc3c2=O)c1 |
| > 40 µM (inactive) | COCCCNC(=O)c1ccc(Cn2c(=O)c3ccccc3n(CC(=O)Nc3ccc4c(c3)OCCO4)c2=O)cc1 |
| 24.1 µM | O=C1Cc2ccccc2C(=O)N1Cc1cccc(Cl)c1 |
| 26.5 µM | Cn1c(=O)c(C(=O)Nc2ccc(Br)cc2)nc2ccccc21 |
| > 40 µM (inactive) | Cc1ccc(NC(=O)Nc2ccccc2OCc2cc(=O)n3cc(C)ccc3n2)cc1 |
| > 40 µM (inactive) | CCn1c(CNC(=O)c2cccc(C)c2)nnc1SCC(=O)N1CCc2ccccc21 |
| 18.8 µM | CC(=O)NS(=O)(=O)c1ccc(NC(=O)/C=C/c2cn(-c3ccccc3)nc2-c2ccccc2)cc1 |
| > 40 µM (inactive) | Cc1cccc(NC(=O)Nc2ccc(C)n(CC(=O)Nc3ccc(C)c(C)c3)c2=O)c1 |
| > 40 µM (inactive) | O=C(CCCn1c(=O)c2cc(Cl)ccc2n(CC(=O)Nc2cccc(F)c2)c1=O)NCc1ccco1 |
| 26.9 µM | COc1cc(Cl)c(NC(=O)C2Cc3ccccc3N2C(=O)c2ccccc2)c(OC)c1 (stereo unspecified) |
| > 40 µM (inactive) | O=C(Cn1c(=O)n(CCC(=O)N2CCc3ccccc3C2)c(=O)c2ccccc21)NCc1ccccc1Cl |
| > 40 µM (inactive) | Cn1c(=O)n([C@@H](Cc2ccccc2)C(=O)N[C@@H](C(=O)O)c2ccc(O)cc2)c(=O)c2ccccc21 |
| 16.3 µM | COc1cc(Cl)c(C)cc1NC(=O)Cn1c(=O)n(CC(=O)NCc2ccco2)c(=O)c2ccccc21 |
| 28.7 µM | COc1ccc(-c2nc3c(c(=O)c4ccccc4n3C)c(=O)n2Cc2ccco2)cc1 |
| 13.2 µM | COc1ccc(NC(=O)Cn2cc(C(=O)c3ccc(Cl)cc3)c(=O)c3cc(F)ccc32)cc1 |
| > 40 µM (inactive) | O=C(CC1C(=O)N(C2CCCC2)c2nc3ccccc3n21)Nc1ccccc1 (stereo unspecified) |
| 14.4 µM | Cc1noc(-c2cc(=O)n(CC(=O)Nc3ccccc3Cl)c3ccccc23)n1 |
| 11.2 µM | COc1cccc(NC(=O)Cn2cc(C(=O)c3ccc(C)cc3)c(=O)c3cc(Cl)ccc32)c1 |
| 13.4 µM | COc1ccc(Cl)cc1NC(=O)Cn1c(=O)n(CCCCC(=O)NCCc2ccccc2)c(=O)c2ccccc21 |

Continued, molecule first:

| Compound | IC50 |
| --- | --- |
| COc1ccc(-n2ccc(=O)c(-c3nc(-c4ccc(F)cc4)no3)n2)cc1 | > 40 µM (inactive) |
| CC(C)Cc1ccc(-c2cc(-c3ccc(C(F)(F)F)cc3)c(C#N)c(=O)[nH]2)cc1 | 9.8 µM |
| CC(=O)[C@H]1c2c(c(O)c3c(O)cccc3c2-c2c3c(c(O)c4c(O)cccc24)C(=O)C[C@](C)(O)[C@H]3C(C)=O)C(=O)C[C@]1(C)O | 39.3 µM |
| CCOc1cccc(-c2noc(-c3nn(-c4ccccc4)ccc3=O)n2)c1 | > 40 µM (inactive) |
| CC[C@H](C)[C@H](NC(=O)[C@H]([C@@H](C)CC)N(C)C(C)=O)C(=O)N[C@H](C(=O)N[C@@H](CC(C)C)C(=O)C1(C)CO1)[C@@H](C)O (stereo partly specified) | > 40 µM (inactive) |
| CC(C)CCCCCCCCCCC(=O)N(C)[C@H](CO)C(=O)N[C@H](C)C(=O)NCC(=O)N(C)C1C(=O)N[C@@H](C)C(=O)NC(C(=O)O)Cc2ccc(O)c(c2)-c2cc1ccc2O (stereo partly specified) | 34.4 µM |
| O=C(Nc1ccccc1Cl)c1cc(-c2ccncc2)n[nH]1 | > 40 µM (inactive) |
| O=C(Nc1ccc(F)cc1F)c1cc(-c2ccccn2)n[nH]1 | > 40 µM (inactive) |
| CCOC(=O)C1CCN(C(=O)c2ccc3c(c2)NC(=O)C2CCCN32)CC1 (stereo unspecified) | > 40 µM (inactive) |
| Cc1ccc(-n2cc(-c3noc(C(=O)Nc4ccc(F)cc4C)n3)nn2)cc1 | 10.1 µM |
| COC(=O)c1c(OC)cc2c(c1C)Oc1c(Cl)c(O)c(Cl)c(C)c1C(=O)O2 | 17.3 µM |
| C=C1C=C(CCC(=O)O)C(=O)OC1/C=C/C=C/C (stereo unspecified) | 3.91 µM |
| CC(C)c1nnc(NC(=O)C2CC(=O)N(CCc3ccc(F)cc3)C2)s1 (stereo unspecified) | > 40 µM (inactive) |
| Cc1cc(C)c(C#N)c(N2CCN(CCOc3ccc(Cl)cc3)CC2)n1 | > 40 µM (inactive) |
| COc1ccc(-c2nc(SCC(=O)Oc3c(C)cccc3C)n3[nH]c(=O)cc3n2)cc1 | 9.85 µM |
| CCC1OC(O)(C(C)C(O)C(C)C2OC(=O)/C(C)=C/C(C)=CC(C)C(O)C(C)C/C(C)=C/C=C/C2OC)CC(OC(=O)/C=C/C(=O)NC2=C(O)CCC2=O)C1C (stereo unspecified) | 16.6 µM |
| CC(C)n1cc(CN2CCC(C(=O)Nc3cccc(-c4cccc(Cl)c4)c3)CC2)cn1 | > 40 µM (inactive) |
| Cc1cc(NC(=O)CSc2ncc(-c3cccc([N+](=O)[O-])c3)n2-c2cccc(Cl)c2)no1 | > 40 µM (inactive) |
| Cc1c(-c2nsc(NC(=O)c3ccc(Cl)cc3)n2)nnn1-c1ccccc1F | 15.7 µM |
| Cc1cc(-c2ccc(S(=O)(=O)NCc3ccc(Cl)cc3)s2)on1 | > 40 µM (inactive) |
